Experimental data as given in ChEMBL document CHEMBL1201862, “PubChem BioAssay data set” (2004).
Active and inactive are the calls of the source.

What was measured:
[1] = Luminescence Cell-Based Dose Retest to Confirm Inhibitors of Cancer Stem Cells. [Related pubchem assays (depositor defined):AID2717, AID2721]; format: functional, Homo sapiens; conditions: Homo sapiens
[2] = inhibitors of SNCA 5'UTR-driven reporter translation, confirmation, H4 neuroglioma cells, luminescence (AID 1988); format: functional, cell-based
[3] = target: T1, Replicative DNA helicase DnaB (Mycobacterium tuberculosis, UniProt P9WMR3); test: DnaB intein splicing inhibitors, dose response, biochemical, cell-free fluorescence (AID 449749); format: functional
T1 sequence (P9WMR3 whole entry): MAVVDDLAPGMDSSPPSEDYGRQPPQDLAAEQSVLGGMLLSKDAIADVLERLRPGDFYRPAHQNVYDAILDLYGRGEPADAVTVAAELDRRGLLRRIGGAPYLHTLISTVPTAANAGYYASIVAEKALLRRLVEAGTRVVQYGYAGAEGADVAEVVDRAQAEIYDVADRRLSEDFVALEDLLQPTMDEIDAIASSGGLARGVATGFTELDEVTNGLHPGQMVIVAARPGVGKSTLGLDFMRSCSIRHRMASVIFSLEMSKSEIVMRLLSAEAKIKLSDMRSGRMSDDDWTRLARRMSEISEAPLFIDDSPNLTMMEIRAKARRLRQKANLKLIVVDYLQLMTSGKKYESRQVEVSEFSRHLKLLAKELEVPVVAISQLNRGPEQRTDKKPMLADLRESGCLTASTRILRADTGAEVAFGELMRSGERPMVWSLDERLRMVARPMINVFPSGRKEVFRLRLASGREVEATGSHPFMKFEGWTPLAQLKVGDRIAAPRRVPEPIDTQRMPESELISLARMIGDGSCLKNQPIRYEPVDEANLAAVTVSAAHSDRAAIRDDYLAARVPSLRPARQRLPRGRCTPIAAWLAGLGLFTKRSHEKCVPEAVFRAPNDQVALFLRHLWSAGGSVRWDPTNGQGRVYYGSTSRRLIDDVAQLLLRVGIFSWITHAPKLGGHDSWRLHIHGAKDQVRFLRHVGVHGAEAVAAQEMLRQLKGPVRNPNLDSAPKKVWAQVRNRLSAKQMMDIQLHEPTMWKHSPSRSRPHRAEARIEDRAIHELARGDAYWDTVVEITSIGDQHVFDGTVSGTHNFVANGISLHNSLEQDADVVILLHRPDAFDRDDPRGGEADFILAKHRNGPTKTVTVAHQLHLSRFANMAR

[4] = target: T2, Protein RecA (Mycobacterium tuberculosis, UniProt P9WHJ3); test: Fluorescence Cell-Free Homogeneous Dose Retest to Identify Inhibitors of RecA-Intein Splicing Activity. [Related pubchem assays (depositor defined):AID2097, AID2223, AID489010, AID492950]; format: functional
T2 sequence (P9WHJ3 whole entry): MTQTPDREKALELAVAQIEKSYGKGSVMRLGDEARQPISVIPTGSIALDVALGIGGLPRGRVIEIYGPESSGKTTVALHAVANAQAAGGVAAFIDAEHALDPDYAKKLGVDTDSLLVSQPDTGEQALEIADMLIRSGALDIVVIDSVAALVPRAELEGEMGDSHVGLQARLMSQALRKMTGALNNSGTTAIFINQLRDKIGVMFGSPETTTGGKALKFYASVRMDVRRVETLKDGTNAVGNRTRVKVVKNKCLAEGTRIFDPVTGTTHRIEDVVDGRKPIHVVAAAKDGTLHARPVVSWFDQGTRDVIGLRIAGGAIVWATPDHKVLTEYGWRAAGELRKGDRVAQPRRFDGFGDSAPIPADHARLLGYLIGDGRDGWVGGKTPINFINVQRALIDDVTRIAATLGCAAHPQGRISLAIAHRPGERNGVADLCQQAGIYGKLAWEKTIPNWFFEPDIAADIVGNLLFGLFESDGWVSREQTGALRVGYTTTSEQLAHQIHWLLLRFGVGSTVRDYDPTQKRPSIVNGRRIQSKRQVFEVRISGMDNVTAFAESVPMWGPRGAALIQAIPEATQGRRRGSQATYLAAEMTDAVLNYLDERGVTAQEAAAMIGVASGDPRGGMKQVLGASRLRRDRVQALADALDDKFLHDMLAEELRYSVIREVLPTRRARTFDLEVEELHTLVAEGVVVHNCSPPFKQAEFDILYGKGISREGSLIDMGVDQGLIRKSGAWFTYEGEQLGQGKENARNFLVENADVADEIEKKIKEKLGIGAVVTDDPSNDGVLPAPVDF

[5] = target: Cytochrome P450 2C19 (Homo sapiens, UniProt P33261); test: Cytochrome panel assay with activity outcomes. Panel member name: p450-cyp2c19 Compounds with AC50 equal or less than 10 uM are considered active; format: functional
Cytochrome P450 2C19, sequence (P33261 whole entry): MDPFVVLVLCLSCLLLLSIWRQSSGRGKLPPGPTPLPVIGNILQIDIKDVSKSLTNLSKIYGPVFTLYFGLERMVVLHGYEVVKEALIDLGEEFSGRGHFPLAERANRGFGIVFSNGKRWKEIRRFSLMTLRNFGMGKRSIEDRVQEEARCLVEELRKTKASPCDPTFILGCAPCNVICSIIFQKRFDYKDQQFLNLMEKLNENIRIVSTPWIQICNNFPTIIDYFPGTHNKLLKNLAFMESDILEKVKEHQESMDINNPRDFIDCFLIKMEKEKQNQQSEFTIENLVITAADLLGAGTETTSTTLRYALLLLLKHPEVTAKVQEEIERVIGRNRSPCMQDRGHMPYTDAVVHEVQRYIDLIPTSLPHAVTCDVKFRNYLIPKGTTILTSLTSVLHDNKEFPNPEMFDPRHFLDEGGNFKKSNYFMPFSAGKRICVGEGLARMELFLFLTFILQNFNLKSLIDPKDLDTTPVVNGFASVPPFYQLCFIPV

[6] = NIH-3T3 fibroblast cytotoxicity, dose response, cytotoxicity control, cell-based, fluorescence, Alamar Blue, secondary assay (AID 2327); format: functional;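 also: NIH-3T3 mouse fibroblasts cultured with fluconazole at 8 µg/mL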
[7] = Luminescence Cell-Based Dose Response HTS to Identify Activators of Luciferase Translation or Activity in H4 […] Cells. [Related pubchem assays: 1829 (Project Summary), 1814 (Primary HTS)]; format: functional
[8] = tested on: H4; test: Luminescence Cell-Based Dose Response HTS to Identify Activators of 5'UTR Stem-Loop Driven Prion Protein mRNA Translation in H4 Neuroglioblastoma Cells. [Related pubchem assays: 1829 (Project Summary), 1814 (Primary HTS)]; format: functional; conditions: Homo sapiens
[9] = tested on: INS1; test: beta cell apoptosis inhibitors, cytokine rescue, dose response, luminescence, retest (AID 449756); format: functional, cell-based; conditions: Rattus norvegicus;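 also: cell death triggered by IL-1 beta plus TNF-alpha plus IFN-gamma mixture; protective hits raise ATP signal compared with cytokine alone wells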

Row | Compound | AC50 [3] | EC50 [4] | also measured
1 | NC(=O)CC(NC(=O)Cc1cccc2ccccc12)c1ccc(NC2CCCCCCC2)c([N+](=O)[O-])c1 (stereo not given) | – | – | AC50 [1]: 14.1 µM (active)
2 | CC(C)COc1ccc2[nH]c3c(c2c1)CCCC3=O | – | – | EC50 [2]: 10.6 µM (active)
3 | COc1ccc(C(=O)/C(=C/c2cccs2)c2nc3ccccc3o2)cc1 | > 380 µM (inactive) | > 380 µM (inactive) | –
4 | COc1ccccc1Oc1cc(C#N)c(C#N)cc1-n1nnc2ccccc21 | 20.2 µM (active) | 3.77 µM (active) | –
5 | Cn1c(N)c(C(=O)COC(=O)c2ccccc2C(=O)c2ccc(Cl)c([N+](=O)[O-])c2)c(=O)n(C)c1=O | – | – | AC50 [1]: 4.25 µM (active)
6 | CC(=O)Oc1ccc2c(=O)oc(-c3ccccc3C)nc2c1 | > 380 µM (inactive) | 37.8 µM (active) | –
7 | CN1/C(=C\C(=O)Nc2ccc(Br)cc2)C(C)(C)c2ccccc21 | – | – | AC50 [1]: 5.09 µM (active)
8 | CC(O)CC(C(=O)NNc1ccccc1)C(=O)NNc1ccccc1 (stereo not given) | – | – | AC50 [1]: 0.489 µM (active)
9 | CC(=O)NC1=NN(c2ccccc2)C(=O)C1 | 33.5 µM (active) | 5.21 µM (active) | AC50 [5]: inconclusive
10 | CCCc1[nH][nH]c(=O)c1C(c1ccccc1)C(C#N)C#N (stereo not given) | 8.91 µM (active) | 4.19 µM (active) | –
11 | Cc1ccc(CNC(=O)c2ccc(N(C)S(=O)(=O)c3ccccc3)cc2)cc1 | 53.4 µM (active) | > 380 µM (inactive) | –
12 | O=C(Oc1ccc2ccccc2c1)c1ccco1 | 18.3 µM (active) | 13.9 µM (active) | –
13 | Cc1cc(C)cc(S(=O)(=O)c2cnc3ccccc3n2)c1 | 20.2 µM (active) | 4.26 µM (active) | –
14 | Clc1ccc(-c2c[n+](Cc3ccc(Br)cc3)c3n2CCCCC3)cc1 | – | – | EC50 [6]: > 150 µM (inconclusive)
15 | CCOCC(=O)NCc1ccc2c(c1)cc(C)n2C | > 380 µM (inactive) | 23.6 µM (active) | –
16 | COC(=O)CN1C(=O)C2(C(C#N)=C(N)Oc3c2c(C)nn3-c2ccccc2)c2ccccc21 (stereo not given) | 7.38 µM (active) | 3.38 µM (active) | –

Row | Compound | AC50 [3] | EC50 [4] | also measured
17 | COc1cccc(C=O)c1OCCCOc1cccc2cccnc12 | – | – | EC50 [7]: 16.4 µM (active); EC50 [8]: 28.1 µM (active)
18 | COc1ccc(-c2cn(Cc3ccc(C(=O)c4ccccc4)cc3)nn2)cc1 | – | – | EC50 [7]: 90.4 µM (active); EC50 [8]: 21.2 µM (active); AC50 [9]: 9.37 µM (active)
19 | CC1=NNC(=O)C1C(c1ccccc1)C1C(=O)NN=C1C (stereo not given) | 0.383 µM (active) | 0.194 µM (active) | –
20 | CC(=O)N(c1ccccc1)C(C)c1nc(C#N)c(C#N)nc1C (stereo not given) | 24.5 µM (active) | 4.35 µM (active) | –
21 | Cc1cc(C)c(OCCCCN2CCNCC2)c(C)c1 | – | – | AC50 [1]: 3.23 µM (active)
22 | COc1ccc(N2CCN(C(=O)c3ccc(Oc4ccc(C(F)(F)F)cn4)cc3)CC2)cc1 | 121 µM (active) | > 380 µM (inactive) | –
23 | Cc1c(C(=O)N2CCOCC2)sc2nc(-c3ccccc3)cn12 | – | – | EC50 [7]: 3.66 µM (active); EC50 [8]: 28.8 µM (active)
24 | COC(=O)Cc1n[nH]c2c1C1(CCSCC1)C(C#N)=C(N)O2 | 10.8 µM (active) | 1.99 µM (active) | –
25 | COc1ccc(-c2sc3ccccc3c2-c2ccc(O)cc2)cc1 | – | – | AC50 [1]: 3.35 µM (active)
26 | Oc1cccc(/C=N/c2cccc3ccccc23)c1O | 3.04 µM (active) | 10.1 µM (active) | –
27 | COC(=O)Cc1cc(=O)n(-c2ccccc2)[nH]1 | 17.6 µM (active) | 14 µM (active) | –
28 | C/C(=N\NC(=O)Cc1cc(O)[nH]n1)c1cccc([N+](=O)[O-])c1 | 2.73 µM (active) | 1.31 µM (active) | –
29 | CO/C(O)=C1/C(C)=NC(=S)NC1c1ccc(OC(=O)c2ccco2)cc1 (stereo not given) | 33.1 µM (active) | 14.4 µM (active) | –
30 | COc1ccc(/C=N/NC(=O)c2cc(C34CC5CC(CC(C5)C3)C4)[nH]n2)cc1O | – | – | AC50 [1]: 1.16 µM (active)
31 | COc1ccc(/C(=N/OC(C)=O)c2nccc3cc(OC)c(OC)cc23)cc1OC | > 380 µM (inactive) | 36.3 µM (active) | –
